Reference: patent US20230172973A1, “METHODS AND COMPOSITIONS FOR TREATING AND COMBATTING TUBERCULOSIS” (THIRTY RESPIRATORY LIMITED, priority 2020, published 2023)

Assays:
[1] = tested on: SARS-CoV-2 clinical isolate; assay: SARS-CoV-2 inhibition (virus yield reduction, TCID50 titration); assay type: cell-based
Protocol: At time 0 hr, Vero E6 cells were infected with virus in presence of the formulation or controls and incubated for 1 hour. After this incubation period the inoculum was removed and the cells were washed. Fresh formulation or controls were then added to the washed cells. At 24 hours post infection, Vero E6 cell supernatants were harvested and titrated, and the virus titration was incubated for 6 days prior to readout to determine any virus yield reduction. Separate tests were performed at four MOIs including 3.0 and 0.3, although only those two MOIs were titrated. The readout was by crystal violet (cell monolayer) staining, followed by CPE scoring.

Vero E6 cells = conditions: 2 hr and 24 hr

Row | Structure (SMILES) | SARS-CoV-2 titre (FIG. 33, Run 1) ([1]; MOI 3.0, 24 hours incubation) | SARS-CoV-2 titre (FIG. 34, Run 2) ([1]; MOI 3.0 and MOI 0.3, 48 hours incubation) | In vitro antiviral action against SARS-CoV-2 (FIGS. 33 and 34) ([1]; Vero E6 cells, MOI 3.0 and 0.3) | Cytotoxicity on the LDH assay (FIG. 32) (Vero E6 cells)
1 | CCN(CC)CCCC(C)Nc1ccnc2cc(Cl)ccc12 (stereo not shown) [chloroquine, Chloroquine phosphate] | limit of detection | limit of detection |  | 
2 | O=C(O)CC(O)(CC(=O)O)C(=O)O [citric acid pH 5.8, citric acid] |  |  | high in vitro antiviral action | low cytotoxicity
